± gives the expanded uncertainty stated by the source.
Test: excess molar enthalpy (molar enthalpy of mixing); xn = mol fraction of the nth substance listed
Details: 1273 K, 105 kPa, Liquid, Calvet calorimetry

[Ni] [nickel] + [Bi]
Details | excess molar enthalpy [kcal/mol]
x1 = 0.0552 | -0.0846 ± 0.0143
x1 = 0.1056 | -0.165 ± 0.0143
x1 = 0.1516 | -0.227 ± 0.0191
x1 = 0.1935 | -0.272 ± 0.0191
x1 = 0.2321 | -0.301 ± 0.0239
x1 = 0.2677 | -0.321 ± 0.0239
x1 = 0.3011 | -0.329 ± 0.0239
x1 = 0.3319 | -0.325 ± 0.0239

From the NIST ThermoML archive (doi:10.1016/j.tca.2017.09.002)
